Data: US9227971B2, “Pyrazolo[1,5-a]pyrimidine compounds as mTOR inhibitors” (Merck Sharp & Dohme Corp., priority 2010, dated 2016)
Like-named read-outs stand apart in the source and are kept apart here.

Legend:
[1] = tested on: phosphorylated AKT Ser473 (pAKT S473), mTORC2 activity, PC3 cells; assay: mTOR target engagement assay, immunofluorescent cell-based, pAKT S473 readout (mTORC2 activity)
Summary of the method: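 After blocking, cells were stained overnight at 4 °C with anti-pAKT S473 antibody, then a fluorescent secondary; inhibition was read as reduced fluorescence intensity.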

[2] = tested on: phosphorylated 4E-BP1 Thr37/46 (p4E-BP1 Thr37/46), mTORC1 activity, PC3 cells; assay: mTOR target engagement assay, immunofluorescent cell-based, p4E-BP1 Thr37/46 readout (mTORC1 activity); settings: read-out: p4E-BP1 Thr37/46 IC50
Summary of the method: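 Cell-based immunofluorescence in PC3 cells: serially diluted compounds (0.25% DMSO, 5% FBS) applied for ninety minutes at 37° C before fixation and overnight 4° C staining of p4E-BP1 Thr37/46. Untreated DMSO wells set maximal phosphorylation; IC50 obtained by logistic fitting.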

[3] = Homo sapiens, PC-3, PC3 cells, compound treatment ninety minutes at 37° C.
[4] = Homo sapiens, PC-3, Table 6-1, PC3 cells
[5] = Homo sapiens, PC-3, Table 3-1, PC3 cells

CC(=O)c1c([C@@H]2C[C@H]3CC[C@@H](C2)N3C(N)=O)nc2c(-c3ccc(-c4cnn(C)c4)nc3)cnn2c1N [Compound 1.1.175, (1R,3s,5S)-3-(6-acetyl-7-amino-3-(6-(1-methyl-1H-pyrazolo-4-yl)pyridin-3-yl)pyrazolo[1,5-a]pyrimidin-5-yl)-8-azabicyclo[3.2.1]octane-8-carboxamide]
IC50 [1, 3]: 1 to 100 nM | IC50 [2, 3]: 100 to 1000 nM

CC(=O)c1c([C@@H]2C[C@H]3CC[C@@H](C2)N3C(=O)[C@@H](C)O)nc2c(-c3ccc(-c4ccccc4)nc3)cnn2c1N [Compound 1.1.2]
IC50 [1, 3]: 1 to 100 nM | IC50 [2, 3]: 100 to 1000 nM

CC(=O)c1c([C@@H]2C[C@H]3CC[C@@H](C2)N3C(=O)CO)nc2c(-c3ccc(-c4ncc(C)[nH]4)c(F)c3)cnn2c1N [Compound 6.38, 1-((1R,3s,5S)-3-(6-acetyl-7-amino-3-(3-fluoro-4-(5-methyl-1H-imidazol-2-yl)phenyl)pyrazolo[1,5-a]pyrimidin-5-yl)-8-azabicyclo[3.2.1]octan-8-yl)-2-hydroxyethanone]
IC50 [1, 4]: 1 to 100 nM | IC50 [2, 4]: 100 to 1000 nM

CCCS(=O)(=O)c1c([C@@H]2C[C@H]3CC[C@@H](C2)N3C(=O)c2nnc[nH]2)nc2c(-c3ccc(-c4ccccc4)nc3)cnn2c1N [Compound 3.162, ((1R,3s,5S)-3-(7-amino-3-(6-phenylpyridin-3-yl)-6-(propylsulfonyl)pyrazolo[1,5-a]pyrimidin-5-yl)-8-azabicyclo[3.2.1]octan-8-yl)(4H-1,2,4-triazol-3-yl)methanone]
IC50 [1, 5]: 100 to 1000 nM | IC50 [2, 5]: 100 to 1000 nM

CC(=O)c1c(C2CC3CCC(C2)N3C(=O)c2nnc[nH]2)nc2c(-c3ccc(-c4ccccc4)nc3)cnn2c1N [Compound 1.1.7, 1-(5-((1R,3s,5S)-8-(1H-1,2,4-triazole-3-carbonyl)-8-azabicyclo[3.2.1]octan-3-yl)-7-amino-3-(6-phenylpyridin-3-yl)pyrazolo[1,5-a]pyrimidin-6-yl)ethanone]
IC50 [1, 3]: 1 to 100 nM | IC50 [2, 3]: 1 to 100 nM

CS(=O)(=O)c1c([C@@H]2C[C@H]3CC[C@@H](C2)N3C(=O)c2cc(N)n[nH]2)nc2c(-c3ccc(-c4ccc(F)cc4)nc3)cnn2c1N [Compound 3.120, (3-amino-1H-pyrazol-5-yl)((1R,3s,5S)-3-(7-amino-3-(6-(4-fluorophenyl)pyridin-3-yl)-6-(methylsulfonyl)pyrazolo[1,5-a]pyrimidin-5-yl)-8-azabicyclo[3.2.1]octan-8-yl)methanone]
IC50 ([1]; Table 3-1, PC3 cells): 1 to 100 nM | IC50 ([2]; Table 3-1, PC3 cells): 1 to 100 nM

CS(=O)(=O)c1c([C@@H]2C[C@H]3CC[C@@H](C2)N3C(=O)c2nc(N)n[nH]2)nc2c(-c3ccc(-c4ccccc4)nc3)cnn2c1N [Compound 3.98, (3-amino-1H-1,2,4-triazol-5-yl)((1R,3s,5S)-3-(7-amino-6-(methylsulfonyl)-3-(6-phenylpyridin-3-yl)pyrazolo[1,5-a]pyrimidin-5-yl)-8-azabicyclo[3.2.1]octan-8-yl)methanone]
IC50 [1, 5]: 1 to 100 nM | IC50 [2, 5]: 1 to 100 nM

CC(=O)c1c([C@@H]2C[C@H]3CC(O)[C@@H](C2)N3C(=O)c2nc[nH]n2)nc2c(-c3ccc(-c4ccccc4)nc3)cnn2c1N (stereo partly drawn) [Compound 8.34, 1-(7-amino-5-((1S,3R,5R)-6-hydroxy-8-(1H-1,2,4-triazole-3-carbonyl)-8-azabicyclo[3.2.1]octan-3-yl)-3-(6-phenylpyridin-3-yl)pyrazolo[1,5-a]pyrimidin-6-yl)ethanone]
IC50 ([1]; Homo sapiens, PC-3, PC3 cells): 1 to 100 nM | IC50 ([2]; Homo sapiens, PC-3, PC3 cells): 1 to 100 nM

Cc1cnc(-c2ccc(-c3cnn4c(N)c(S(C)(=O)=O)c([C@@H]5C[C@H]6CC[C@@H](C5)N6C(=O)C(N)C(F)(F)F)nc34)cn2)s1 (stereo partly drawn) [Compound 3.188, 2-amino-1-((1R,3s,5S)-3-(7-amino-6-(methylsulfonyl)-3-(6-(5-methylthiazol-2-yl)pyridin-3-yl)pyrazolo[1,5-a]pyrimidin-5-yl)-8-azabicyclo[3.2.1]octan-8-yl)-3,3,3-trifluoropropan-1-one]
IC50 [1, 5]: 1000 to 10000 nM | IC50 [2, 5]: 1000 to 10000 nM

CCn1ccc(-c2ccc(-c3cnn4c(N)c(C(C)=O)c([C@@H]5C[C@H]6CC[C@@H](C5)N6C(=O)CO)nc34)cn2)n1 [Compound 1.1.137, 1-((1R,3s,5S)-3-(6-acetyl-7-amino-3-(6-(1-ethyl-1H-pyrazol-3-yl)pyridin-3-yl)pyrazolo[1,5-a]pyrimidin-5-yl)-8-azabicyclo[3.2.1]octan-8-yl)-2-hydroxyethanone]
IC50 [1, 3]: 1 to 100 nM | IC50 [2, 3]: 100 to 1000 nM

Nc1c(C2CC2)c([C@H]2CC3CC[C@H](C2)N3C(=O)c2nnc[nH]2)nc2c(-c3cnc4c(c3)OCCC4O)cnn12 (stereo partly drawn) [Compound 7.64, ((1R,3s,5S)-3-(7-amino-6-cyclopropyl-3-(4-hydroxy-3,4-dihydro-2H-pyrano[3,2-b]pyridin-7-yl)pyrazolo[1,5-a]pyrimidin-5-yl)-8-azabicyclo[3.2.1]octan-8-yl)(4H-1,2,4-triazol-3-yl)methanone]
IC50 ([1]; Homo sapiens, PC-3, PC3 cells): 100 to 1000 nM | IC50 ([2]; Homo sapiens, PC-3, PC3 cells): 100 to 1000 nM

CS(=O)(=O)c1c([C@@H]2C[C@H]3CC[C@@H](C2)N3C(N)=O)nc2c(-c3ccc(-c4ccc(F)cc4F)nc3)cnn2c1N [Compound 3.125, (1R,3s,5S)-3-(7-amino-3-(6-(2,4-difluorophenyl)pyridin-3-yl)-6-(methylsulfonyl)pyrazolo[1,5-a]pyrimidin-5-yl)-8-azabicyclo[3.2.1]octane-8-carboxamide]
IC50 [1, 5]: 1 to 100 nM | IC50 [2, 5]: 100 to 1000 nM

CC(=O)c1c([C@@H]2C[C@H]3CC[C@@H](C2)N3C(=O)c2nnc(N)[nH]2)nc2c(-c3ccc(-c4ncc[nH]4)nc3)cnn2c1N [Compound 6.20, 1-(3-(6-(1H-imidazol-2-yl)pyridin-3-yl)-7-amino-5-((1R,3s,5S)-8-(5-amino-4H-1,2,4-triazole-3-carbonyl)-8-azabicyclo[3.2.1]octan-3-yl)pyrazolo[1,5-a]pyrimidin-6-yl)ethanone]
IC50 [1, 4]: 1 to 100 nM | IC50 [2, 4]: 1 to 100 nM

COc1ccc(-c2ccc(-c3cnn4c(N)c(C5CC5)c([C@@H]5C[C@H]6CC[C@@H](C5)N6C(=O)c5nnc[nH]5)nc34)cn2)cc1F [Compound 4.9, ((1R,3s,5S)-3-(7-amino-6-cyclopropyl-3-(6-(3-fluoro-4-methoxyphenyl)pyridin-3-yl)pyrazolo[1,5-a]pyrimidin-5-yl)-8-azabicyclo[3.2.1]octan-8-yl)(4H-1,2,4-triazol-3-yl)methanone]
IC50 [1, 3]: 1 to 100 nM | IC50 [2, 3]: 100 to 1000 nM

CC(=O)c1c([C@@H]2C[C@H]3CC[C@@H](C2)N3C(=O)c2nnc(O)[nH]2)nc2c(-c3ccc(-c4ccccc4)nc3)cnn2c1N [Compound 1.1.40, 1-(7-amino-5-((1R,3s,5S)-8-(5-hydroxy-4H-1,2,4-triazole-3-carbonyl)-8-azabicyclo[3.2.1]octan-3-yl)-3-(6-phenylpyridin-3-yl)pyrazolo[1,5-a]pyrimidin-6-yl)ethanone]
IC50 [1, 3]: 100 to 1000 nM | IC50 [2, 3]: 100 to 1000 nM

CC(=O)c1c([C@@H]2C[C@H]3CC[C@@H](C2)N3C(=O)CO)nc2c(-c3cnc(-c4ccccc4)c(O)c3)cnn2c1N [Compound 1.1.32, 1-((1R,3s,5S)-3-(6-acetyl-7-amino-3-(5-hydroxy-6-phenylpyridin-3-yl)pyrazolo[1,5-a]pyrimidin-5-yl)-8-azabicyclo[3.2.1]octan-8-yl)-2-hydroxyethanone]
IC50 [1, 3]: 1000 to 10000 nM | IC50 [2, 3]: 1000 to 10000 nM

CCC(=O)c1ccc(-c2cnn3c(N)c(C(C)=O)c([C@@H]4C[C@H]5CC[C@@H](C4)N5C(=O)c4nnc[nH]4)nc23)cn1 [Compound 1.1.83, 1-(5-(5-((1R,3s,5S)-8-(4H-1,2,4-triazole-3-carbonyl)-8-azabicyclo[3.2.1]octan-3-yl)-6-acetyl-7-aminopyrazolo[1,5-a]pyrimidin-3-yl)pyridin-2-yl)propan-1-one]
IC50 [1, 3]: 100 to 1000 nM | IC50 [2, 3]: 100 to 1000 nM

Nc1c(C2CC2)c([C@]2(O)C[C@H]3CC[C@@H](C2)N3C(=O)c2nnc[nH]2)nc2c(-c3ccc(-c4ccccc4)nc3)cnn12 [Compound 8.24, ((1R,3r,5S)-3-(7-amino-6-cyclopropyl-3-(6-phenylpyridin-3-yl)pyrazolo[1,5-a]pyrimidin-5-yl)-3-hydroxy-8-azabicyclo[3.2.1]octan-8-yl)(4H-1,2,4-triazol-3-yl)methanone]
IC50 ([1]; Homo sapiens, PC-3, PC3 cells): 100 to 1000 nM | IC50 ([2]; Homo sapiens, PC-3, PC3 cells): 1000 to 10000 nM

COc1ccc(-c2ccc(-c3cnn4c(N)c(Br)c([C@@H]5C[C@H]6CC[C@@H](C5)N6C(=O)CO)nc34)cn2)cc1CO [Compound 2.2, 1-((1R,3s,5S)-3-(7-amino-6-bromo-3-(6-(3-(hydroxymethyl)-4-methoxyphenyl)pyridin-3-yl)pyrazolo[1,5-a]pyrimidin-5-yl)-8-azabicyclo[3.2.1]octan-8-yl)-2-hydroxyethanone]
IC50 [1, 3]: 1 to 100 nM | IC50 [2, 3]: 100 to 1000 nM

Nc1c(C2CC2)c(C2CC3CCC(C2)N3C(=O)c2nnc(N3CCNCC3)[nH]2)nc2c(-c3ccc(-c4ccccc4)nc3)cnn12 [Compound 8.98, ((1R,3s,5S)-3-(7-amino-6-cyclopropyl-3-(6-phenylpyridin-3-yl)pyrazolo[1,5-a]pyrimidin-5-yl)-8-azabicyclo[3.2.1]octan-8-yl)(5-(piperazin-1-yl)-4H-1,2,4-triazol-3-yl)methanone]
IC50 ([1]; Homo sapiens, PC-3, PC3 cells): 1000 to 10000 nM | IC50 ([2]; Homo sapiens, PC-3, PC3 cells): 1000 to 10000 nM
